Measurements reported in ChEMBL document CHEMBL1201862, “PubChem BioAssay data set” (2004).
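In this assay, cells in 96-well plates receive the compound at five concentrations for 48 hours. Endpoints are linearly interpolated between the surrounding concentrations. At the GI50, growth is halved.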 Activity calls are given as the source filed them. Cut-off read from the data, not from the text of the source: active = GI50 up to about 1.1 µM and inactive = higher.

Columns and labels:
Experiment in all cases: inhibition of tumour cell growth, NCI panel, 48 h
[1] = tested on: 786-0
[2] = tested on: A498
[3] = tested on: A549
[4] = tested on: ACHN
[5] = tested on: BT-549
[6] = tested on: CAKI-1
[7] = tested on: CCRF-CEM
[8] = tested on: COLO 205
[9] = tested on: DU-145
[10] = tested on: EKVX
[11] = tested on: HCC 2998
[12] = tested on: HCT-116
[13] = tested on: HCT-15
[14] = tested on: HL-60
[15] = tested on: HOP-62
[16] = tested on: HT-29
[17] = tested on: Hs-578T
[18] = tested on: IGROV-1
[19] = tested on: K562
[20] = tested on: KM12
[21] = tested on: LOX IMVI
[22] = tested on: M14
[23] = tested on: MCF7
[24] = tested on: MDA-MB-231
[25] = tested on: MDA-MB-435
[26] = tested on: MDA-N
[27] = tested on: MOLT-4
[28] = tested on: Malme-3M
[29] = tested on: NCI-H226
[30] = tested on: NCI-H23
[31] = tested on: NCI-H460
[32] = tested on: NCI-H522
[33] = tested on: OVCAR-3
[34] = tested on: OVCAR-4
[35] = tested on: OVCAR-5
[36] = tested on: OVCAR-8
[37] = tested on: PC-3
[38] = tested on: RPMI-8226
[39] = tested on: RXF 393
[40] = tested on: SF-268
[41] = tested on: SF-295
[42] = tested on: SF-539
[43] = tested on: SK-MEL-28
[44] = tested on: SK-MEL-2
[45] = tested on: SK-MEL-5
[46] = tested on: SK-OV-3
[47] = tested on: SN12C
[48] = tested on: SNB-19
[49] = tested on: SNB-75
[50] = tested on: SR
[51] = tested on: SW-620
[52] = tested on: T47D
[53] = tested on: TK-10
[54] = tested on: U-251
[55] = tested on: UACC-257
[56] = tested on: UACC-62
[57] = tested on: UO-31
[58] = tested on: HOP-92
[59] = tested on: NCI/ADR-RES

Structure (SMILES): O=C(O)Cc1cccc2c(=O)c3cccc([N+](=O)[O-])c3oc12
- GI50 [1]: > 100 µM (inactive)
- GI50 [2]: > 100 µM (inactive)
- GI50 [3]: > 100 µM (inactive)
- GI50 [4]: > 100 µM (inactive)
- GI50 [5]: > 100 µM (inactive)
- GI50 [6]: > 100 µM (inactive)
- GI50 [7]: > 100 µM (inactive)
- GI50 [8]: > 100 µM (inactive)
- GI50 [9]: > 100 µM (inactive)
- GI50 [10]: > 100 µM (inactive)
- GI50 [11]: > 100 µM (inactive)
- GI50 [12]: > 100 µM (inactive)
- GI50 [13]: > 100 µM
- GI50 [14]: > 100 µM (inactive)
- GI50 [15]: > 100 µM (inactive)
- GI50 [16]: > 100 µM (inactive)
- GI50 [17]: > 100 µM (inactive)
- GI50 [18]: > 100 µM (inactive)
- GI50 [19]: > 100 µM (inactive)
- GI50 [20]: > 100 µM (inactive)
- GI50 [21]: > 100 µM (inactive)
- GI50 [22]: > 100 µM (inactive)
- GI50 [23]: > 100 µM (inactive)
- GI50 [24]: > 100 µM (inactive)
- GI50 [25]: > 100 µM (inactive)
- GI50 [26]: > 100 µM (inactive)
- GI50 [27]: > 100 µM (inactive)
- GI50 [28]: > 100 µM (inactive)
- GI50 [29]: > 100 µM (inactive)
- GI50 [30]: > 100 µM (inactive)
- GI50 [31]: > 100 µM (inactive)
- GI50 [32]: > 100 µM (inactive)
- GI50 [33]: > 100 µM (inactive)
- GI50 [34]: > 100 µM (inactive)
- GI50 [35]: > 100 µM (inactive)
- GI50 [36]: > 100 µM (inactive)
- GI50 [37]: > 100 µM (inactive)
- GI50 [38]: > 100 µM (inactive)
- GI50 [39]: > 100 µM (inactive)
- GI50 [40]: > 100 µM (inactive)
- GI50 [41]: > 100 µM (inactive)
- GI50 [42]: > 100 µM (inactive)
- GI50 [43]: > 100 µM (inactive)
- GI50 [44]: > 100 µM (inactive)
- GI50 [45]: > 100 µM (inactive)
- GI50 [46]: > 100 µM (inactive)
- GI50 [47]: > 100 µM (inactive)
- GI50 [48]: > 100 µM (inactive)
- GI50 [49]: > 100 µM (inactive)
- GI50 [50]: > 100 µM (inactive)
- GI50 [51]: > 100 µM (inactive)
- GI50 [52]: > 100 µM (inactive)
- GI50 [53]: > 100 µM (inactive)
- GI50 [54]: > 100 µM (inactive)
- GI50 [55]: > 100 µM (inactive)
- GI50 [56]: > 100 µM (inactive)
- GI50 [57]: > 100 µM (inactive)

Structure (SMILES): Cc1cc(O)c2c(c1O)C(=O)c1cccc(O)c1C2=O [ISLANDICIN]
- GI50 [1]: > 100 µM (inactive)
- GI50 [3]: > 100 µM (inactive)
- GI50 [4]: > 100 µM (inactive)
- GI50 [5]: > 100 µM (inactive)
- GI50 [6]: > 100 µM (inactive)
- GI50 [7]: > 100 µM (inactive)
- GI50 [9]: > 100 µM (inactive)
- GI50 [10]: > 100 µM (inactive)
- GI50 [11]: > 100 µM (inactive)
- GI50 [12]: > 100 µM (inactive)
- GI50 [13]: > 100 µM
- GI50 [14]: 60.8 µM (inactive)
- GI50 [15]: > 100 µM (inactive)
- GI50 [58]: > 100 µM (inactive)
- GI50 [16]: > 100 µM (inactive)
- GI50 [17]: > 100 µM (inactive)
- GI50 [18]: > 100 µM (inactive)
- GI50 [19]: > 100 µM (inactive)
- GI50 [20]: > 100 µM (inactive)
- GI50 [21]: > 100 µM (inactive)
- GI50 [22]: > 100 µM (inactive)
- GI50 [23]: > 100 µM (inactive)
- GI50 [24]: > 100 µM (inactive)
- GI50 [25]: > 100 µM (inactive)
- GI50 [26]: > 100 µM (inactive)
- GI50 [29]: > 100 µM (inactive)
- GI50 [30]: > 100 µM (inactive)
- GI50 [31]: > 100 µM (inactive)
- GI50 [32]: 47.8 µM (inactive)
- GI50 [59]: > 100 µM (inactive)
- GI50 [33]: > 100 µM (inactive)
- GI50 [34]: > 100 µM (inactive)
- GI50 [35]: > 100 µM (inactive)
- GI50 [36]: > 100 µM (inactive)
- GI50 [37]: > 100 µM (inactive)
- GI50 [38]: > 100 µM (inactive)
- GI50 [39]: > 100 µM (inactive)
- GI50 [40]: > 100 µM (inactive)
- GI50 [41]: > 100 µM (inactive)
- GI50 [42]: > 100 µM (inactive)
- GI50 [43]: > 100 µM (inactive)
- GI50 [44]: > 100 µM (inactive)
- GI50 [45]: > 100 µM (inactive)
- GI50 [46]: > 100 µM (inactive)
- GI50 [47]: > 100 µM (inactive)
- GI50 [48]: > 100 µM (inactive)
- GI50 [49]: 43.1 µM (inactive)
- GI50 [51]: > 100 µM (inactive)
- GI50 [52]: > 100 µM (inactive)
- GI50 [53]: > 100 µM (inactive)
- GI50 [54]: > 100 µM (inactive)
- GI50 [55]: > 100 µM (inactive)
- GI50 [56]: > 100 µM (inactive)
- GI50 [57]: > 100 µM (inactive)
